{
  "source": "ChEMBL document CHEMBL5726728",
  "about": "“T-type calcium channel modulator and uses thereof” (2019)",
  "key": {"Cannabinoid receptor 2": {"target": "Cannabinoid receptor 2 (Homo sapiens, UniProt P34972)", "sequence (P34972 whole entry)": "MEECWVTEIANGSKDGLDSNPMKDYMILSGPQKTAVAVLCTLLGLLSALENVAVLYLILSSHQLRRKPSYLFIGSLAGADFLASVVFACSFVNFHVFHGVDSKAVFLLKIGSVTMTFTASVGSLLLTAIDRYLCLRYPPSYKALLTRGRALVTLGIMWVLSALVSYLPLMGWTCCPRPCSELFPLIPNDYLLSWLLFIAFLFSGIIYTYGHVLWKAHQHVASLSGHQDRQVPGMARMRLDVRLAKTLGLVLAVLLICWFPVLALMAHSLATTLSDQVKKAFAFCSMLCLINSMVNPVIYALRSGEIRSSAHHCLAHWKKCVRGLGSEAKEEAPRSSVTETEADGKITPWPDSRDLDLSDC", "assay": "(§1) As used herein, the term T-type calcium channel blocker refers to a compound that can modulate, in particular inhibit or reduce activation of T-type calcium channels. […] The term about refers to ±20%, typically ±10%, and often ±5% of the numeric value."}, "Cannabinoid receptor 1": {"target": "Cannabinoid receptor 1 (Rattus norvegicus, UniProt P20272)", "sequence (P20272 whole entry)": "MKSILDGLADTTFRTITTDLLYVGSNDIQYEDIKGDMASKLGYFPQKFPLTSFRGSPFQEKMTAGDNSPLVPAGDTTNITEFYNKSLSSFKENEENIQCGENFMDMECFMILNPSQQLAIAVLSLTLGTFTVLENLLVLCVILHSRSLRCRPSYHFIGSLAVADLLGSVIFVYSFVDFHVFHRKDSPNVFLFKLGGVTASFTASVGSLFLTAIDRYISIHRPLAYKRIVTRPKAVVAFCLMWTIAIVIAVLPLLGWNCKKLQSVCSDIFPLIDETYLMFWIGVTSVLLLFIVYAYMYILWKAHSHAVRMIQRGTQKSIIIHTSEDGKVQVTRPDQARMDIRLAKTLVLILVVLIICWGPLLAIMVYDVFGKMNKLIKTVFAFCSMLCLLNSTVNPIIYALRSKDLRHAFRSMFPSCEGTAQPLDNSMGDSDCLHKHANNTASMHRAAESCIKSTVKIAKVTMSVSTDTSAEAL", "assay": "as §1"}},
  "data": [
    {"smiles": "CCCCCn1c2ccccc2c2cc(C(=O)N3CCN(CC(=O)NC(C)(C)C)CC3)ccc21", "values": [
      {"measurement": "Ki", "setting": "Cannabinoid receptor 2", "value": 1970, "unit": "nM"},
      {"measurement": "Ki", "setting": "Cannabinoid receptor 1", "value": 15, "unit": "nM"}
    ]}
  ]
}
